Measurements taken from patent US12391646B2, “Using adiponectin receptor agonists to treat inflammation and bone diseases in diabetes” (Trustees of Tufts College, priority 2020, dated 2025).

Key:
[1] = test system: DIO mice with experimental periodontitis; experiment: Experimental periodontitis in DIO mice; assay type: in vivo; conditions: for numbers of osteoclasts on alveolar bone (TRAP stain): compared to vehicle-treated DIO mice; for IL-6 and CCL-2 gene expression in periodontal epithelium: compared to vehicle-treated group; for bodyweight / decrease in fasting blood glucose level: two weeks oral gavage, AdipoRon 50 mg/kg, AdipoAI 25 mg/kg, vs vehicle; for average alveolar bone loss at 6 sites (CEJ-ABC distance): two weeks, vehicle 372.3±27.3 μm
Method: FIG. 19 AdipoRon and AdipoAI attenuate experimental periodontitis in diet-induced obesity (DIO). (A) Bodyweight of vehicle, AdipoRon and AdipoAI-treated DIO mice with experimental periodontitis. (B) Fasting blood glucose in DIO mice with experimental periodontitis treated with vehicle, AdipoRon and AdipoAI. (C) A representative 3-dimensional model of alveolar bone in DIO mice with experimental periodontitis. […] The distance from ABC to CEJ in four groups is shown in (D) (n≥7). (E) Representative TRAP-stained alveolar bone in DIO mice with experimental periodontitis. Black arrow, osteoclast (scale bar=200 μm). The number of osteoclasts attached to the alveolar bone surface was calculated (F). (G) Relative expression of IL-6 and CCL2 genes in gingival tissue from DIO mice with experimental periodontitis was analyzed using real-time PCR. The animals were treated AdipoRon and AdipoAI or vehicle alone (n≥5).
DIO (C57BL/6J background, Jax #380050) were purchased from the Jackson Laboratory (Bar Harbor, ME, http://www.jax.org/). After acclimatization, animals were fed a high-fat diet (containing 60% kcal from fat, Jackson Laboratory) from 6 weeks of age onwards. Experimental periodontitis was induced in 20-week-old mice by 5-0 silk suture as described previously 26. Briefly, animals were anesthetized using ketamine/xylazine and buprenorphine and the sutures were placed around the maxillary second molar and tied on the palatal side for 2 weeks. The ethical approval of this study was provided by the IACUC of UCSD. The care and use of laboratory animals and Animal Research was performed in accordance with NIH guidelines.
AdipoRon (50 mg/kg body weight)^23, 24 and the AdipoAI (25 mg/kg body weight)^25 were administered by oral gavage concurrently with establishment of experimental periodontitis for 2 weeks.
Gingival tissues from the palatal side were sampled and immediately stored in liquid nitrogen until further analysis. The skulls were scanned by the Bruker Skyscan micro-CT system (Bruker, Kontich, Belgium). Alveolar bone loss, defined as the distance between the cementoenamel junction (CEJ) to the alveolar bone crest (ABC), was measured at six sites (mesio-buccal, mid-buccal, disto-buccal, mesio-palatal, mid-palatal, and disto-palatal) using Ctan software (http://bruker-microct.com/products/downloads.htm) as previously reported^26. Periodontal hard tissue sections were stained with Acid Phosphatase, Leukocyte (TRAP) Kit (Sigma, St. Louis, MO, USA) according to the manufacturer's instructions.
Total RNA was isolated from cell cultures and gingival soft tissues using TriZol reagent (Life Technologies, Carlsbad, CA, USA) according to the manufacturer's instructions^24. Reverse transcription was performed using the PrimeScript RT Master Mix (Takara Bio, Otsu, Japan) and real-time-qPCR analyses were performed using SYBR-Green Real-Time PCR Master Mix (Takara Bio, Otsu, Japan) as described earlier^27.

Raw264.7 cells = experiment: CCK-8 cytotoxicity assay, 24 hours; assay type: cell-based; conditions: at 40 μM or lower concentrations
Method: FIG. 1 Characterization of anti-inflammatory properties of APR-like compounds. (a) Raw264.7 cells were pretreated with APR (20 μM) or new compounds 1 to 10 (5 μM) for 24 h followed by incubation with LPS (100 ng/mL) for an additional 6 h. IL-6 and IL-1β mRNA expression levels were evaluated by qPCR and normalized with GAPDH mRNA level. (b) Raw264.7 cells were pretreated with different doses of AdipoAI for 24 h followed by incubation with LPS (100 ng/mL) for additional 6 h to evaluate dose-dependency of AdipoAI in inhibiting IL-6 and IL-1β mRNA expression levels by qRT-PCR and normalized with GAPDH mRNA level. (c) Evaluation of cytotoxicity of APR, AdipoAI and compound 5 by CCK8 assay in Raw264.7 cells treated for 24 hours. (d) BMMs were pretreated with APR (20 μM), AdipoAI (5 μM) or compound 5 (5 μM) for 24 h followed by incubation with LPS (100 ng/ml) for additional 6 h for the measurement of IL-6 and IL-1β mRNA expression levels by qRT-PCR and normalized with GAPDH mRNA level. Data were expressed as the mean±SEM at five biological independent experiments. One-way ANOVA test for multiple-group comparisons, *P<0.05, significant differences between each indicated group.
Raw264.7 cells were seeded at 2×10^3 cells/well in 96-well plates for 16 hours and then serum-starved for 6 hours. Cells were maintained in DMEM in the presence of different concentrations of APR (AdipoGen Life Sciences, San Diego, CA, USA) and compounds for 24 hours. […] The detailed group assignment is shown in the individual figure legends.

O=C(COc1ccc(C(=O)c2ccccc2)cc1)NC1CCN(Cc2ccccc2)CC1 [AdipoRon, reference compound]
numbers of osteoclasts on alveolar bone (TRAP stain) [1]: significantly decreased numbers of osteoclasts | IL-6 and CCL-2 gene expression in periodontal epithelium [1]: significantly attenuated the IL-6 and CCL-2 gene expression | bodyweight [1]: decreased significantly | decrease in fasting blood glucose level [1]: 73.3% | average alveolar bone loss at 6 sites (CEJ-ABC distance) [1]: 344.5±22.2 μm | cytotoxic effects (CCK-8) (Raw264.7 cells): neither of the 3 small molecules mediated significant cytotoxic effects

COc1ccc(CN2CCC(NC(=O)COc3ccc(C(=O)c4ccc(Cl)cc4)cc3)CC2)cc1 [Compound 3]
numbers of osteoclasts on alveolar bone (TRAP stain) [1]: significantly decreased numbers of osteoclasts | IL-6 and CCL-2 gene expression in periodontal epithelium [1]: significantly attenuated the IL-6 and CCL-2 gene expression | bodyweight [1]: decreased significantly | decrease in fasting blood glucose level [1]: 75.3% | average alveolar bone loss at 6 sites (CEJ-ABC distance) [1]: 328.5±19.9 μm | cytotoxic effects (CCK-8) (Raw264.7 cells): neither of the 3 small molecules mediated significant cytotoxic effects
